3 compounds from US7691869B2, “Pyrrolotriazolopyrimidine derivatives, pharmaceutical compositions containing them and methods of treating conditions and diseases mediated by the adenosine A2A receptor activity” (King Pharmaceuticals Research and Development, Inc., priority 2008, dated 2010) can be followed below.

The Ki is a dissociation constant, usually derived from enzyme kinetics or from competition with a known ligand.

For assay [1], the target named is T1, human adenosine A2A receptor (Homo sapiens, UniProt P29274).
T1 construct: expressed in transfected cells; host or cells: CHO cells (membrane preparation)
T1 sequence (P29274 whole entry): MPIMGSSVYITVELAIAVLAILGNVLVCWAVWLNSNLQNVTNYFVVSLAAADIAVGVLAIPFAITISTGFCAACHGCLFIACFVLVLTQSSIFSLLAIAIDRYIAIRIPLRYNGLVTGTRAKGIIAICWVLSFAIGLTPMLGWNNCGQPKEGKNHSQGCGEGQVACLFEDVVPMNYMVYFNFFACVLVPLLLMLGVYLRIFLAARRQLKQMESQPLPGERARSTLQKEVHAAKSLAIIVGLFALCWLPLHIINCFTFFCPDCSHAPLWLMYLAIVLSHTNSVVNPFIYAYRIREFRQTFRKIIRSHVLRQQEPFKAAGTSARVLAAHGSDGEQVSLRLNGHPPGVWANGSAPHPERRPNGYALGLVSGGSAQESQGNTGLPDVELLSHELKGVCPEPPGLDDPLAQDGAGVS
In words: Human cloned A2A adenosine receptor binding assay ([3H]ZM241385 displacement, CHO membranes). To be noted: [3H]ZM241385, CHO cells transfected with human recombinant A2A receptors. As for the experimental part:
CHO Membranes Preparation
The human adenosine receptors have been transfected in CHO cells according with the method previously described by Klotz et al. (Naunyn-Schmied. Arch Pharm. 1998, 357: 1-9). Briefly, the cells are grown adherently and maintained in Dulbecco's Modified Eagles Medium with nutrient mixture F12 (DMEM/F12) without nucleosides, containing 10% fetal calf serum, penicillin (100 U/mL), streptomycin (100 μg/mL), L-glutamine (2 mM) and Geneticin (G418, 0.2 mg/ml) at 37° C. in 5% CO2/95% air. For membrane preparation the culture medium is removed and the cells are ished with phosphate-buffered saline and scraped off T75 flasks in ice-cold hypo tonic buffer (5 mM Tris HCl, 1 mM EDTA, pH 7.4). The cell suspension is homogenized with Polytron, the homogenate is spun for 10 min at 1000×g and the supernatant is then centrifuged for 30 min at 100,000×g. […]
All new synthesized compounds have been tested to evaluate their affinity to human A1, A2A, A2B and A3 adenosine receptors. […] Non-specific binding is determined in the presence of 10 μM of CHA and this is always ≦10% of the total binding. […] Non-specific binding is determined in the presence of 1 μM ZM 241385 and is about 20% of total binding. […] Bound and free radioactivity are separated by filtering the assay mixture through Whatman GF/B glass fiber filters using a Micro-Mate 196 cell harvester (Packard Instrument Co.). The filter bound radioactivity is counted on a Top Count (efficiency 57%) with Micro-Scint 20.
The protein concentration is determined according to a Bio-Rad method (Bradford, Anal Biochem. 1976, 72: 248-254) with bovine albumin as a standard reference. Inhibitory binding constant, Ki, values are calculated from those of IC50 according to Cheng & Prusoff equation (Biochem. Pharmacol. 1973, 22: 3099-3108): Ki=IC50/(1+[C*]/KD*) where [C*] is the concentration of the radioligand and KD* its dissociation constant. […] Data are expressed as geometric mean with 95% confidence limits in parentheses.

For the next assay, the system named is 6-OHDA lesion rats. The assay can be described thus: 6-OHDA lesion of the middle forebrain bundle in rats, Protocol B (apomorphine-induced rotation). It counts as in vivo, rat. To be noted: 30 mg/kg single i.p. dose; threshold dose of apomorphine 0.02 mg/kg i.p.; significant increase, p≦0.05; FIG. 1. The method, then: Adult male Sprague-Dowley rats (Harlan UK ltd., Bicester, Oxon, UK), weighing 255±15 g, are used in all experiments. The rats are housed in groups of up to 5 per cage, and the animals are fed an expanded rodent diet of RM1(E) SQC (Special Diets Services, Witham, UK) ab libitum, and allowed free access to water, under controlled temperature and 12 hour light-dark cycle.
The test compounds are formulated for dosing by initially wet grinding a known amount in approximately 10% of the final volume of vehicle, i.e., propylene glycol/polyethylene glycol (PEG400)/glucose (D5W)-15/15/70 v %, in a mortal and pestle. Once suitably wetted, approximately 30% of the remaining vehicle is added, stirred for up to 10 min, and then sonicated for approximately 5 min. This step is repeated twice, using remaining vehicle to provide even suspensions of 0.6, 2 and 6 mg/mL. No correction factor is applied. All test substance formulations are clear to light tan colored suspensions, stored at RT and protected from light until dosing. The dose volume for the test compounds is 5 mL/kg to provide dosages of 3, 10 and 30 mg/kg, respectively.
Apomorphine hydrochloride (HCl) hemihydrate (Sigma, UK) is formulated for dosing by dissolving a known amount in 0.9% w/v sodium chloride (Baxter Healthcare Ltd., UK) to produce a clear, colorless solution of 0.02 mg/mL. […]

Consider `Nc1nc2c(ccn2CCN2CCN(C(=O)c3ccc(F)cc3F)CC2)c2nc(-c3ccco3)nn12` [Example 4, (4-(2-(5-Amino-2-(furan-2-yl)-7H-pyrrolo[3,2-e][1,2,4]triazolo[1,5-c]pyrimidin-7-yl)ethyl)piperazin-1-yl)(2,4-difluorophenyl)methanone], for which the Ki in assay [1] was approximately 1 nM.

As to `CN(CCN(C)c1ccc(F)cc1F)CCn1ccc2c1nc(N)n1nc(-c3ccco3)nc21` [Example 29, N^1-(2-(5-Amino-2-(furan-2-yl)-7H-pyrrolo[3,2-e][1,2,4]triazolo[1,5-c]pyrimidin-7-yl)ethyl)-N^2-(2,4-difluorophenyl)-N^1,N^2-dimethylethane-1,2-diamine], the Ki in assay [1] was approximately 28 nM.

Regarding `Nc1nc2c(ccn2CCN2CCN(c3ccc(F)cc3F)CC2)c2nc(-c3ccco3)nn12` [Example 30, 7-(2-(4-(2,4-Difluorophenyl)piperazin-1-yl)ethyl)-2-(furan-2-yl)-7H-pyrrolo[3,2-e][1,2,4]triazolo[1,5-c]pyrimidin-5-amine], the inhibition constant (Ki) in assay [1] was approximately 5 nM. The “number of contralateral rotations” value in the assay with 6-OHDA lesion rats stood at 228±38.
